Where two headings read alike, the source gives them in different places. Residues, ends and D or L forms follow the SMILES beside them. *: point of attachment. Cbz = O=C(OCc1ccccc1)*; CH2F = FC*
How the values were obtained:
Assay type in all cases: cell-based, human
U266 and RPMI cell lines = assay: Pretreatment with antagonists/inhibitors before WIN-55, MTT viability; details: for effect of inhibitor on WIN-55-induced apoptosis / loss of viability: WIN-55 at suboptimal concentrations, 18 hours; for effect of preincubation with CB2 antagonist on pro-apoptotic effect induced by WIN-55: 30 minutes pretreatment, then WIN-55 up to 18 hours
Experimental: (§1) The MM cell lines and primary cells were exposed to different doses of indazole compounds, and viability was evaluated at 18, 48, and 72 hours. Pretreatments with the ceramide synthesis inhibitor (FB1), pan-caspase (ZVAD-FMK), and CB antagonists (PGN-8, PGN-37, and PGN-70) were performed for 30 minutes, and then the cells were incubated with indazole compound WIN-55 up to 18 hours. Cell viability was determined using the MTT assay Cell Counting Kit-8 (Dojindo, Kumamoto, Japan) according to the manufacturer's instructions.

U266 [1] = assay: Western blot and immunofluorescence in U266 cells; details: U266, 50 μM fumonisin B1
Experimental: The extracts for Western blot were taken after 0, 2, 6, 18, and 24 hours. The cells were lysed according to Gilbert et al., 2002. (J Immunol Methods. 2002, 271:185-201), by adding 2% ASB-14 (Calbiochem, Beeston, United Kingdom) to the isotonic lysis buffer. The protein concentration was determined by Pierce® Microplate BCA Protein Assay kit-Reducing Agent Compatible (Pierce, Rockford, Ill.). The samples were subjected to SDS/PAGE in AnykD precast gels (Bio Rad, Hercules, Calif.) and transferred to PVDF membranes using Trans-Blot® Turbo™ System (Bio-Rad). The membranes were incubated over night at 4° C. with primary antibody in 0.05% Tween 20-Tris buffered saline (TTBS) then with the suitable secondary antibody, and they were subjected to chemiluminescence detection. As a control condition, the cells were treated with DMSO (<0.15%) in RPMI 1640 medium from Gibco (Gaithersburg, Md.).
The antibodies for caspase-2, -8, -9, active caspase-3, -p-Akt (phospho T308), p-Erk (T202+Y204), -p-p38MAPK (phospho T180+Y182), -p-JNK (phospho T183+Y185), -SPT, and the CB1 and CB2 receptors were from Abcam, anti-MCL-1 and -Bcl-xL were from Santa Cruz Biotechnology, anti-PARP was from Cell Signaling Technology, anti-Bax and -Bak were from BD Biosciences. Anti-beta-tubulin was from Sigma-Aldrich. All the horseradish peroxidase (HRP)-conjugated secondary antibodies used were from Jackson ImmunoResearch and produced in a donkey to prevent the possible cross-reactivity when several tests were performed.
The cells treated for 6 hours with indazole compounds were collected and placed on a slide. Immunofluorescence staining was performed as described previously by Vielhaber et al. 2001 (Glycobiology. 2001, 11:451-7) using anti-ceramide as the primary antibody. The ceramide antibody was obtained from Sigma-Aldrich, and the Alexa-488-conjugated secondary antibody was obtained from Abcam. As a control condition, the cells were treated with DMSO (<0.15%) in RPMI 1640 medium from Gibco (Gaithersburg, Md.).

HL60 and KG-1a = assay: Antagonists/inhibitors together with WIN-55,212-2, WST-1 viability in AML cells; details: WIN-55,212-2 10 μM, 18 hours; for effect of inhibitor on cannabinoid-induced loss of viability: WST-1; for effect of CB2 antagonist on cannabinoid-induced apoptosis: HL60 and KG1-a
Experimental: The cell lines and primary cells were cultured in 96-well plates (5×10e5 cells per well) with the addition of the indicated concentrations of WIN 55,212-2 or PGN cannabinoids in DMSO or with the solvent only in triplicate at 18, 48, and 72 hours. Caspase inhibitor Z-VAD (OMe)-FMK or the CB2 receptor antagonist PGN-8, -37, and -70, together with the cannabinoid WIN-55,212-2, were also added. Cell viability was determined by means of the WST-1 assay [2-(4-iodophenyl)-3-(4-nitrophenyl)-5-(2,4-disulfophenyl)-2H-tetrazolium] according to the manufacturer's instructions (Dojindo Molecular Technologies). Optical densities were measured at 450 nm using a Multiskan™ Go Microplate plate reader (Thermo Fisher Scientific, Waltham, Mass., USA).

U266 [2] = assay: MTT cell viability assay, myeloma cell line U266; details: read-out: IC50, cell viability
Experimental: (§2) In vitro studies were carried out using six different human MM cell lines, U266, RPMI8226, MM1S, MM1R, U266-LR7, and RPMI-LR5. For ex vivo assays, human primary cells from healthy donors and MM patients were used (Table 1). Human MM cell lines U266, RPMI8226, and MM1.S were acquired from ATCC and lines U266-LR7, RPMI-LR5, and MM1.R were kindly provided by Dr. Enrique Ocio (Hospital Universitario de Salamanca, Spain). The primary cells were obtained from bone marrow (BM) aspirates or peripheral blood (PB) samples, and the peripheral blood mononuclear cells (PBMCs) were isolated by Ficoll-Hypaque centrifugation and washed twice in phosphate buffered saline (PBS) containing 1% BSA. Hematopoietic stem cells and B and T lymphocytes were isolated from healthy PB donors by positive immunomagnetic separation using human MACS CD34+, CD19+, and CD3+ microbeads, respectively. MM plasma cells were obtained from the bone marrow (BM) of patients with an infiltration of cells of more than 30% (Table 1). The MM plasma cells were identified using CD138+, and were then distinguished from the other cell populations by flow cytometry using a suitable combination of antibodies: anti-human CD64-FITC, CD34-PE, CD56-APC, CD38-APC-H7, and CD45-Pacific Blue antibodies (BD Biosciences, San Jose, Calif.). All the cell lines were cultured in RPMI-1640 supplemented with 10% fetal bovine serum (FBS) and 1% penicillin/streptomycin, as recommended by the supplier. For human primary cells, the concentration of FBS was up to 20%.
as §1

U266-LR7 = assay: MTT cell viability assay, myeloma cell line U266-LR7; details: read-out: IC50, cell viability
Experimental: as §2, §1

MM1R = assay: MTT cell viability assay, myeloma cell line MM1R; details: read-out: IC50, cell viability
Experimental: as §2, §1

RPMI8226 = assay: MTT cell viability assay, myeloma cell line RPMI; details: read-out: IC50, cell viability
Experimental: as §2, §1

RPMI-LR5 = assay: MTT cell viability assay, myeloma cell line RPMI-LR5; details: read-out: IC50, cell viability
Experimental: as §2, §1

myeloma cell lines = assay: MTT cell viability assay, average over all myeloma cell lines; details: read-out: IC50 average
Experimental: as §2, §1

[3] = tested on: lymphocytic T-cells (CD3+) and B-cells (CD19+); assay: Viability of T and B lymphocytes from healthy donors (MTT)
Experimental: as §2, with “The MM plasma cells were identified using CD138+, and were then distinguished from the other cell populations by flow cytometry using a suitable combination of antibodies: anti-human CD64-FITC, CD34-PE, CD56-APC, CD38-APC-H7, and CD45-Pacific Blue antibodies (BD Biosciences, San Jose, Calif.). All the cell lines were cultured in RPMI-1640 supplemented with 10% fetal bovine serum (FBS) and 1% penicillin/streptomycin, as recommended by the supplier. For human primary cells, the concentration of FBS was up to 20%.” left out
The MM cell lines and primary cells were exposed to different doses of indazole compounds, and viability was evaluated at 18, 48, and 72 hours. […] Cell viability was determined using the MTT assay Cell Counting Kit-8 (Dojindo, Kumamoto, Japan) according to the manufacturer's instructions.

MM1S = assay: MTT cell viability assay, myeloma cell line MM1S; details: read-out: IC50, cell viability
Experimental: as §2, §1

HL60 = assay: Western blot and immunocytofluorescence in HL60 cells; details: HL60, WIN-55,212-2 10 μM
Excerpt: The detailed methodology for analyzing mitochondrial membrane potential (APm), Western Blot analysis, and immunocytofluorescence analysis has been described elsewhere 29

[4] = Homo sapiens, U-266, U266, MTT, 18 hours, doses 0-50 μM
[5] = Homo sapiens, U266-LR7, MTT, 18 hours, doses 0-50 μM
[6] = Homo sapiens, MM.1R, MM1R, MTT, 18 hours, doses 0-50 μM
[7] = Homo sapiens, RPMI-8226, RPMI, MTT, 18 hours, doses 0-50 μM
[8] = Homo sapiens, RPMI-LRS, MTT, 18 hours, doses 0-50 μM
[9] = Homo sapiens, average over the six myeloma cell lines, MTT, 18 hours

CCCC[C@@H](C)[C@@H](OC(=O)C[C@@H](CC(=O)O)C(=O)O)[C@H](C[C@@H](C)C[C@H](O)CCCC[C@@H](O)C[C@H](O)[C@H](C)N)OC(=O)C[C@@H](CC(=O)O)C(=O)O [FB1, Fumonisin B1]
effect of inhibitor on WIN-55-induced apoptosis / loss of viability (U266 and RPMI cell lines): significantly reverses the effect | effect on PARP fragmentation induced by WIN-55 (U266 [1]): considerably prevented the PARP fragmentation | effect of inhibitor on cannabinoid-induced loss of viability (HL60 and KG-1a): only partially prevented

c1ccc2c(COc3nn(CCN4CCCCC4)c4ccccc34)cccc2c1 [PGN6, 3-(1-naphthylmethoxy)-1-(2-piperidinoethyl)indazole]
IC50 (U266 [2]; [4]): 25.4 µM | IC50 (U266-LR7; [5]): 78.2 µM | IC50 (MM1R; [6]): 18.6 µM | IC50 (RPMI8226; [7]): 14.4 µM | IC50 (RPMI-LR5; [8]): 13.7 µM | IC50 (myeloma cell lines; [9]): 29.7 µM | viability of the lymphocytes [3]: did not affect the viability of the lymphocytes

c1ccc2c(COc3nn(CCN4CCCC4)c4ccccc34)cccc2c1 [PGN17]
IC50 (U266 [2]; U266, MTT, 18 hours, doses 0-50 μM): 20.7 µM | IC50 (U266-LR7; U266-LR7, MTT, 18 hours, doses 0-50 μM): 51 µM | IC50 (MM1S; MM1S, MTT, 18 hours, doses 0-50 μM): 44.6 µM | IC50 (MM1R; MM1R, MTT, 18 hours, doses 0-50 μM): 20.5 µM | IC50 (RPMI8226; RPMI, MTT, 18 hours, doses 0-50 μM): 19.9 µM | IC50 (RPMI-LR5; RPMI-LRS, MTT, 18 hours, doses 0-50 μM): 21.7 µM | IC50 (myeloma cell lines; average over the six myeloma cell lines, MTT, 18 hours): 29.7 µM | viability of the lymphocytes ([3]; healthy donors, doses with antiproliferative effect on MM cell lines): did not affect the viability of the lymphocytes

Nc1ccc2c(c1)c(OCc1ccc3ccccc3c1)nn2CCN1CCCCC1 [PGN34, 5-amino-3-(2-naphthylmethoxy)-1-(2-piperidinoethyl)indazole]
IC50 (U266 [2]; Homo sapiens, U-266, 18 h): 26.9 µM | IC50 (U266-LR7; Homo sapiens, 18 h): 17.8 µM | IC50 (MM1S; Homo sapiens, MM1.S, 18 h): 17.1 µM | IC50 (MM1R; Homo sapiens, MM.1R, 18 h): 21 µM | IC50 (RPMI8226; Homo sapiens, RPMI-8226, 18 h): 15.4 µM | IC50 (RPMI-LR5; Homo sapiens, 18 h): 23.2 µM | IC50 (myeloma cell lines; Homo sapiens, 18 h): 20.2 µM

Nc1ccc2c(c1)c(OCc1cccc3ccccc13)nn2CCN1CCCCC1 [PGN72, 5-amino-3-(1-naphthylmethoxy)-1-(2-piperidinoethyl)indazole]
IC50 (U266 [2]; [4]): 21.2 µM | IC50 (U266-LR7; [5]): 20.6 µM | IC50 (MM1S; Homo sapiens, MM1.S, MM1S, MTT, 18 hours, doses 0-50 μM): 24.8 µM | IC50 (MM1R; [6]): 26.7 µM | IC50 (RPMI8226; [7]): 19.6 µM | IC50 (RPMI-LR5; [8]): 41.4 µM | IC50 (myeloma cell lines; [9]): 25.7 µM

Cn1nc(OCc2cccc3ccccc23)c2cc([N+](=O)[O-])ccc21 [PGN-8, 1-methyl-3-(1-naphthylmethoxy)-5-nitroindazole]
effect of preincubation with CB2 antagonist on pro-apoptotic effect induced by WIN-55 (U266 and RPMI cell lines): considerably inhibited | effect of CB2 antagonist on cannabinoid-induced apoptosis (HL60 and KG-1a): significantly inhibiting cannabinoid-induced apoptosis

COc1ccc(COc2n[nH]c3ccc([N+](=O)[O-])cc23)cc1 [PGN-37, 3-(4-methoxybenzyloxy)-5-nitro-1H-indazole]
effect of preincubation with CB2 antagonist on pro-apoptotic effect induced by WIN-55 (U266 and RPMI cell lines): considerably inhibited | effect of CB2 antagonist on cannabinoid-induced apoptosis (HL60 and KG-1a): significantly inhibiting cannabinoid-induced apoptosis

O=[N+]([O-])c1ccc2[nH]nc(OCc3cccc4ccccc34)c2c1 [PGN-70, 3-(1-naphthylmethoxy)-5-nitro-1H-indazole]
effect of preincubation with CB2 antagonist on pro-apoptotic effect induced by WIN-55 (U266 and RPMI cell lines): considerably inhibited | effect of CB2 antagonist on cannabinoid-induced apoptosis (HL60 and KG-1a): significantly inhibiting cannabinoid-induced apoptosis

COC(=O)C[C@H](NC(=O)[C@H](C)NC(=O)[C@@H](NC(=O)OCc1ccccc1)C(C)C)C(=O)CF [Z-VAD-FMK] (Cbz-Val-Ala-Asp(OMe)-CH2F)
effect of inhibitor on WIN-55-induced apoptosis / loss of viability (U266 and RPMI cell lines): prevented the apoptosis | effect of inhibitor on cannabinoid-induced loss of viability (HL60 and KG-1a): abolished

CCCCCCC(=O)CCCCCC/C=C/C[C@@H](O)[C@H](O)[C@@](N)(CO)C(=O)O [myriocin, Myriocin]
effect on PARP fragmentation and Casp 3 cleavage induced by WIN-55,212-2 (HL60): prevented the fragmentation of PARP and the cleavage of Casp 3

— patent US20200281897A1, “INDAZOLE DERIVATIVES FOR CANCER TREATMENT” (Servicio Andaluz de Salud, priority 2016, published 2020)
